Laboratory results from paper PMC9658295, “The RSL3 Induction of KLK Lung Adenocarcinoma Cell Ferroptosis by Inhibition of USP11 Activity and the NRF2-GSH Axis” (Cancers, 2022).

Legend:
USP11 [1] = biological target: T1, USP11 (Homo sapiens, UniProt P51784, Q402E/Y833E); assay: bio-layer interferometry (Octet), biotinylated protein on SSA sensors, […] global fit; format: binding
T1 construct: biotin-labelled for BLI

USP11 [2] = biological target: T2, USP11 (Homo sapiens, UniProt P51784); assay: as above; format: binding; settings: PBS-T, 30 °C; RSL3 6.81-218 μM; unreliable (KD above the highest concentration tested); protein refolded from 8 M urea
T2 construct: biotin-labelled for BLI
T2 sequence (P51784 whole entry): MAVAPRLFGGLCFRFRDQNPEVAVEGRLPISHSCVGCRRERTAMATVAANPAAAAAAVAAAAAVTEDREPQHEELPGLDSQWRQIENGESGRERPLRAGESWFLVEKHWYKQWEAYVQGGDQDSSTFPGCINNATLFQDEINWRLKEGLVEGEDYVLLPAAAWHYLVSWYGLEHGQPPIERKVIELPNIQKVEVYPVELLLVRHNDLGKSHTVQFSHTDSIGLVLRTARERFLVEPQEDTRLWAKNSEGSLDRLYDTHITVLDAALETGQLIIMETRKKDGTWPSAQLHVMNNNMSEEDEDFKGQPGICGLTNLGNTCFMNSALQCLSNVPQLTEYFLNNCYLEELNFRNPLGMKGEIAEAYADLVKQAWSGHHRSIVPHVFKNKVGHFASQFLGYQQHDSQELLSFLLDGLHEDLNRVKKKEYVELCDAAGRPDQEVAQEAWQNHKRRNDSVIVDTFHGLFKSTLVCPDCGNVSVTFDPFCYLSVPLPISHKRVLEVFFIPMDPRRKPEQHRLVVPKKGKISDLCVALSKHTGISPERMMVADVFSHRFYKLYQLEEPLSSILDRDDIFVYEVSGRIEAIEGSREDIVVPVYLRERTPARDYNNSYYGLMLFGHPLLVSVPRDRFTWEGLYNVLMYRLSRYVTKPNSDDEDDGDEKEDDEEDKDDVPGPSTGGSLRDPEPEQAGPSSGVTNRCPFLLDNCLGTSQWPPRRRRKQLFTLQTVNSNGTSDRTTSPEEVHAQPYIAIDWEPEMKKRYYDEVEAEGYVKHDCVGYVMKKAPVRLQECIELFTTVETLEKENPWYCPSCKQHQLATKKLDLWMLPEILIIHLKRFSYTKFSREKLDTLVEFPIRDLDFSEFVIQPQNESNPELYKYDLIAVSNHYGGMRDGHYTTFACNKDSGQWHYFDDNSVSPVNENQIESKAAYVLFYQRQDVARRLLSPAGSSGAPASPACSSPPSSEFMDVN

T1 sequence (P51784 whole entry Q402E/Y833E): as the sequence (P51784 whole entry) above, with Q402E, Y833E counted along it

- Kd (USP11 [1]): 190 µM
- KD (USP11 [2]): 340 µM
SMILES: COC(=O)c1ccc([C@H]2c3[nH]c4ccccc4c3C[C@H](C(=O)OC)N2C(=O)CCl)cc1 [RSL3]
